Eleven compounds from ChEMBL document CHEMBL1201862, “PubChem BioAssay data set” (2004) can be followed below.

Test systems include SF-539; LOX IMVI; UACC-62; HCT-116; MDA-MB-231; SK-MEL-2; HOP-92; SK-MEL-5; PC-3; SK-MEL-28; K562; OVCAR-5; SN12C; CCRF-CEM; MDA-N; EKVX; SNB-19; MOLT-4; HL-60.
Test in all cases: NCI tumour cell line growth inhibition, 48 h

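Grown in 96-well plates, cells were treated for 48 hours with each compound at five concentrations. Insufficient inhibition: endpoint recorded as highest concentration tested. At the GI50, growth is halved.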 Calls of active or inactive are those of the source. Rule as the data show it: active = GI50 up to about 1.1 µM and inactive = higher. Bounds are passed on as bounds.

As to `COc1nc2c(c(=O)[nH]1)N=C(c1ccc(Cl)cc1)CC(c1ccccc1)N2` (stereo not given), the GI50 with SF-539 is 21.6 µM (inactive); in the experiment with LOX IMVI it was 22.5 µM (inactive); in the experiment with UACC-62, 20.2 µM (inactive); in the experiment on HCT-116 it was 34.3 µM (inactive); in the experiment with MDA-MB-231 it was 23.8 µM (inactive); with SK-MEL-2 it was 21.3 µM (inactive). Moreover, the GI50 in the experiment with HOP-92 is 24.1 µM (inactive); in the experiment on SK-MEL-5 it was 17.6 µM (inactive); in the experiment with PC-3 it was 43.5 µM (inactive); with SK-MEL-28, 17.7 µM (inactive); in the experiment with K562, 28.1 µM (inactive); in the experiment on OVCAR-5, 49.9 µM (inactive). The GI50 with SN12C was 22.7 µM (inactive); in the experiment with CCRF-CEM it was 19.1 µM (inactive); with MDA-N, 31 µM (inactive); with EKVX, 29.6 µM (inactive); in the experiment with SNB-19, 35.6 µM (inactive); with MOLT-4, 35.6 µM (inactive).
With `CC(=O)OCC1OC(n2c(-c3ccccc3)c(/N=N/c3ccc(C)cc3)c(C)c(C#N)c2=S)C(OC(C)=O)C(OC(C)=O)C1OC(C)=O` (stereo not given), the GI50 in the experiment with HL-60 is 2.82 µM (inactive); in the experiment with LOX IMVI it was 6 µM (inactive); in the experiment on HCT-116, 3.26 µM (inactive); in the experiment on MDA-MB-231, 17.7 µM (inactive); in the experiment on SK-MEL-2 it was 20.7 µM (inactive); with HOP-92, 0.0257 µM (active). The GI50 in the experiment with PC-3 was > 10 µM (inactive); in the experiment on SK-MEL-28 it was 26.4 µM (inactive); in the experiment on K562, 5.69 µM (inactive); in the experiment on OVCAR-5, 23.7 µM (inactive); in the experiment on SN12C it was 6.35 µM (inactive); in the experiment on CCRF-CEM it was 11 µM (inactive). In addition, the GI50 is 7.36 µM (inactive) with MDA-N, 15.3 µM (inactive) in the experiment on SNB-19 and 3.67 µM (inactive) with MOLT-4.
As for `O=S(=O)(O)c1cc(O)c(/N=N/c2ccc3ccccc3c2O)c2ccccc12` [ERIOCHROME BLUE BLACK B], the GI50 in the experiment on HL-60 is 6.17 µM (inactive); with UACC-62, 14.8 µM (inactive); in the experiment on HCT-116, 33.4 µM (inactive); with MDA-MB-231, 16.4 µM (inactive); with SK-MEL-2, 26.9 µM (inactive); in the experiment on HOP-92, 28.5 µM (inactive). The GI50 is 11.9 µM (inactive) with SK-MEL-5; 34.3 µM (inactive) in the experiment with PC-3; 45.6 µM (inactive) in the experiment on SK-MEL-28; 18 µM (inactive) with K562; 33.3 µM (inactive) in the experiment with OVCAR-5; 23.4 µM (inactive) in the experiment on SN12C. Moreover, the GI50 is 21.9 µM (inactive) with CCRF-CEM; 5.06 µM (inactive) with MDA-N; 12.9 µM (inactive) with EKVX; 37.8 µM (inactive) with SNB-19; 18 µM (inactive) in the experiment on MOLT-4.
With `CCCCSC1=N/C(=C\c2ccc(N(C)C)cc2)C(NN)=N1`, the GI50 with HL-60, in the experiment on LOX IMVI, in the experiment on UACC-62, in the experiment on HCT-116, with MDA-MB-231 and in the experiment on SK-MEL-2 was > 100 µM (inactive) throughout. Besides, the GI50 with HOP-92, with PC-3, with SK-MEL-28, in the experiment with K562, in the experiment on OVCAR-5 and with SN12C was > 100 µM (inactive) in each case. Further, the GI50 with CCRF-CEM, in the experiment with MDA-N, in the experiment with EKVX, in the experiment on SNB-19 and in the experiment with MOLT-4 was > 100 µM (inactive) in each case.
Take `O=C1/C(=C\c2ccc(Br)cc2)CCCc2ccccc21`: the GI50 in the experiment on HL-60 was 14.2 µM (inactive); in the experiment with SF-539, 15.5 µM (inactive); with LOX IMVI, 16.3 µM (inactive); with UACC-62, 13.3 µM (inactive); with HCT-116, 12.4 µM (inactive); with MDA-MB-231, 18.5 µM (inactive). Moreover, the GI50 with SK-MEL-2 was 19.1 µM (inactive); in the experiment on HOP-92, 19.1 µM (inactive); in the experiment on PC-3, 20.3 µM (inactive); in the experiment on SK-MEL-28 it was 18.9 µM (inactive); in the experiment on K562, 41.8 µM (inactive); with OVCAR-5 it was 38.6 µM (inactive). Further, the GI50 with SN12C was 16.5 µM (inactive); in the experiment on CCRF-CEM it was 19.7 µM (inactive); in the experiment on MDA-N, 17.4 µM (inactive); in the experiment on EKVX, 17.5 µM (inactive); in the experiment with SNB-19, 16.6 µM (inactive); in the experiment with MOLT-4, 18.1 µM (inactive).
For the compound `O/N=C1\Nc2ccccc2OCc2cc(Br)c(Br)cc2COc2ccccc2N\C1=N/O`, the GI50 in the experiment on HL-60 is 5.18 µM (inactive); in the experiment on LOX IMVI it was 10.1 µM (inactive); in the experiment with UACC-62, 15.3 µM (inactive); in the experiment with HCT-116, 6.12 µM (inactive); in the experiment with MDA-MB-231, 14.8 µM (inactive); in the experiment on SK-MEL-2 it was 19.5 µM (inactive). Further, the GI50 in the experiment on HOP-92 was 12.6 µM (inactive); in the experiment with SK-MEL-5, 12.9 µM (inactive); in the experiment on PC-3, 13.4 µM (inactive); in the experiment on SK-MEL-28, 22.6 µM (inactive); with K562, 4.85 µM (inactive); with OVCAR-5, 17.9 µM (inactive). Further, the GI50 with SN12C is 11.9 µM (inactive); in the experiment with CCRF-CEM, 4.98 µM (inactive); with MDA-N it was 14.3 µM (inactive); with EKVX, 15.2 µM (inactive); with SNB-19, 10.7 µM (inactive); in the experiment with MOLT-4 it was 3.63 µM (inactive).
Consider `C=C1C[C@]23CC[C@@H]4C(CO)(CO)CC(=O)C[C@]4(C)[C@@H]2CC[C@H]1C3`, for which the GI50 in the experiment on HL-60, in the experiment on SF-539, in the experiment with LOX IMVI, in the experiment on UACC-62, in the experiment with HCT-116 and in the experiment with MDA-MB-231 was > 100 µM (inactive) in each case. In addition, the GI50 was > 100 µM (inactive) with SK-MEL-2; > 100 µM (inactive) in the experiment with HOP-92; 40.5 µM (inactive) in the experiment on PC-3; > 100 µM (inactive) in the experiment on SK-MEL-28; > 100 µM (inactive) in the experiment with K562; > 100 µM (inactive) in the experiment with OVCAR-5. The GI50 in the experiment on SN12C was > 100 µM (inactive); in the experiment on CCRF-CEM it was > 100 µM (inactive); in the experiment on MDA-N, > 100 µM (inactive); in the experiment on EKVX it was > 100 µM (inactive); in the experiment with SNB-19, 21.5 µM (inactive); in the experiment with MOLT-4, > 100 µM (inactive).
Regarding `CC1=NN(c2nc(N)nc(/C(C#N)=C\C3COc4ccccc4C3=O)n2)C(C)(C)C1` (stereo not given), the GI50 in the experiment with HL-60 was 0.0404 µM (active); in the experiment with SF-539, 26.2 µM (inactive); in the experiment on LOX IMVI, 27.2 µM (inactive); in the experiment with HCT-116 it was 20.6 µM (inactive); with MDA-MB-231, 30.1 µM (inactive); with SK-MEL-2 it was 14.8 µM (inactive). The GI50 in the experiment with HOP-92 is 36.5 µM (inactive); in the experiment on SK-MEL-5, 18.7 µM (inactive); in the experiment on PC-3, 24.4 µM (inactive); in the experiment on SK-MEL-28, 21.6 µM (inactive); in the experiment with K562, 32.1 µM (inactive); in the experiment on OVCAR-5, 35.6 µM (inactive). Besides, the GI50 in the experiment on CCRF-CEM is 1.9 µM (inactive); with MDA-N, 18.9 µM (inactive); with EKVX, 22.5 µM (inactive); in the experiment on MOLT-4 it was 21.8 µM (inactive).
Regarding `Cc1cc(S(=O)(=O)Nc2nc3cccnc3[nH]2)c(S)cc1Cl`, the GI50 in the experiment on HL-60 is > 100 µM (inactive); with SF-539 it was > 100 µM (inactive); in the experiment on LOX IMVI it was 83 µM (inactive); in the experiment on UACC-62, 85.1 µM (inactive); in the experiment on HCT-116, > 100 µM (inactive); in the experiment with MDA-MB-231, 45.3 µM (inactive). Further, the GI50 in the experiment on HOP-92 was > 100 µM (inactive); in the experiment on SK-MEL-5, 71.9 µM (inactive); with PC-3, 92.3 µM (inactive); in the experiment with SK-MEL-28 it was > 100 µM (inactive); in the experiment with K562, > 100 µM (inactive); with OVCAR-5, > 100 µM (inactive). Further, the GI50 was > 100 µM (inactive) in the experiment with SN12C; > 100 µM (inactive) in the experiment with CCRF-CEM; > 100 µM (inactive) in the experiment with MDA-N; > 100 µM (inactive) in the experiment on EKVX; 77.8 µM (inactive) in the experiment on SNB-19; > 100 µM (inactive) with MOLT-4.
`C/C=C/c1c(O)c(=O)c2c(OC)cc(OC)c3c4c(OC)cc(OC)c5c(=O)c(O)c(/C=C/C)c(c1c23)c54`: the GI50 is 3.61 µM (inactive) with SF-539; 8.55 µM (inactive) in the experiment with LOX IMVI; 6.3 µM (inactive) with UACC-62; 4.84 µM (inactive) in the experiment with HCT-116; 10.4 µM (inactive) in the experiment with MDA-MB-231; 10.2 µM (inactive) with SK-MEL-2. The GI50 was 14.4 µM (inactive) in the experiment with HOP-92; 5.73 µM (inactive) in the experiment on SK-MEL-5; 6.37 µM (inactive) in the experiment on PC-3; 16.6 µM (inactive) with SK-MEL-28; 3.4 µM (inactive) with K562; 20.5 µM (inactive) with OVCAR-5. Moreover, the GI50 with SN12C was 16.5 µM (inactive); in the experiment with CCRF-CEM, 5.46 µM (inactive); in the experiment on MDA-N, 6.87 µM (inactive); in the experiment on EKVX it was 16.6 µM (inactive); in the experiment with SNB-19, 1.95 µM (inactive); with MOLT-4, 4.03 µM (inactive).
For `CN(C)Cc1cc(C(=O)O)cc(CN(C)C)c1O`, the GI50 with HL-60, in the experiment with LOX IMVI, in the experiment with UACC-62, in the experiment with HCT-116, with MDA-MB-231 and in the experiment on SK-MEL-2 was > 100 µM (inactive) in each case. Further, the GI50 in the experiment with HOP-92, in the experiment on SK-MEL-5, in the experiment with PC-3, with SK-MEL-28, in the experiment with K562 and with OVCAR-5 was > 100 µM (inactive) in each case. Also, the GI50 with SN12C, with CCRF-CEM, in the experiment with MDA-N, in the experiment with EKVX and in the experiment with SNB-19 was > 100 µM (inactive) in each case.
